Non-standard residues stand in square brackets, D forms with d. Nle = CCCC[C@H](N)C(=O)O
Columns and labels:
human melanocytes = assay: DNA damage as measured by 8-oxo-dG immunofluorescence; type: cell-based
Description: DNA damage of cultured melanocytes following UV irradiation leads to consistent levels of photoproducts such as 8-oxo-dG. It is well established in the art (dermal carcinogenesis) that 8-oxodG is a major form of UV-induced oxidative DNA damage, which results from the generation of reactive oxygen species (ROS). The induction of 8-oxodG by 8-oxo-dGTP can be inhibited by pyrophosphohydrolases (8-[…]) that convert it to 8-oxo-dGMP. […] Immunofluorescence was detected using a microscope with FITC filters. Data were expressed as the mean fluorescence intensity±S.E., determined using the densitometry values from 6-8 randomly obtained images, using the computer assisted program Alpha Inotech Imaging System and the AlphaEase FC StandAlone Software.

melanocyte strain 1513c = assay: Cell proliferation as a measure of stability, strain 1513c; type: cell-based, human
Procedure: With continued reference to FIGS. 7, 8 and 9, to determine the stability of CUV9900 versus that of NDP-MSH and α-MSH, melanocytes were treated with 1 nM of each peptide, namely with CUV9900, NDP-MSH and α-MSH, for a total of 6 days, or with 1 nM peptides that were incubated for 5 hours at 37° C. prior to addition to the cultures, every other day, for a total of 6 days. Tyrosinase activity was measured at the end of treatment. In the experiments, cell number represents the mean percent of control of 3 determinations/group±SE, and tyrosinase activity data represent the mean percent of control of 6 determinations±S.E. It should be noted that for the sake of reproducibility the experiment of strain 1513c of FIG. 9 was performed once more 6 months later than the experiment of FIG. 7.
Peptides were incubated at 37 degrees Celsius for 5 hours and then split into groups. Cell proliferation was a measure of stability, whereby the experiments on strain 1513c were divided in period 1 and 2 under standard conditions.
Cell proliferation as a measure of stability is shown in Tables 1 to 3 below, wherein Table 1 is based on data derived from FIG. 7, Table 2 is based on data derived from FIG. 9, and Table 3 is based on data derived from FIG. 8: […]

melanocytes strain 1513c = assay: cAMP levels, radioimmunoassay, strain 1513c; type: cell-based, human; settings: 45 min, 0.1 mM IBMX
Procedure: (§1) Dose-response experiments were carried out on three melanocytic strains, namely strains 1513c, 1505b and 105c melanocytes were treated with 1 pM-10 nM CUV9900 or NDP-MSH, or with 0.1-10 nM MSH for 45 minutes in the presence of 0.1 mM isobutyl methylxanthine (IBMX). The results obtained from strain 1513c are shown in FIG. 3, the results obtained from strain 1505b are shown in FIG. 5a and the results obtained from strain 105c are shown in FIG. 5b. The strains 1505b and 1513c were obtained from the same human adult while the strain 105c was obtained from another human adult. Cyclic AMP is the second messenger for the melanocortin-1 receptor, and assessment is usually performed indicating cellular activity reflective of melanogenesis. Cyclic AMP levels were determined using ^125I-labeled radioimmunoassay kit (Perkin Elmer, Waltham, Mass.), in human melanocytes that were treated with 0 (control), 0.1-10.0 nM α-MSH, or 0.001-10 nM NDP-MSH or 0.001-10.0 nM CUV 9900 for […]. in the presence of 0.1 mM IBMX, a phosphodiesterase inhibitor to prevent cAMP degradation. Triplicate wells were included in each group, and duplicate samples from each well were assayed for cAMP levels. Each data point is the mean percent of control of 6 determinations/group±S.E.

melanocyte strain 103c = assay: UV-induced apoptosis by Annexin V staining, strain 103c; type: cell-based, human; settings: 1 nM, 4 days prior and 1 day following 105 mJ/cm^2 UV
Procedure: With reference to FIGS. 12 and 13, melanocytes were maintained for the duration of the experiment in medium lacking bovine pituitary extract (BPE) to determine the survival effect of α-MSH or its analogs in the absence of the anti-apoptotic effect of TPA. Melanocytes were treated with 0, 1 nM α-MSH, 1 μM Forskolin, or 1 nM NDP-MSH or CUV9900 for 4 days prior to, and 24 h after exposure to a dose of 105 mJ/cm^2 UV, then stained for Annexin Va staining. The data are represented as percent increase above control, with triplicate dishes included in each group.
Comparison of the effect of CUV9900, NDP-MSH and MSH on the UV-induced apoptosis were made in the melanocyte strains 103c and melanocyte strain 1513c of FIGS. 12 and 13, respectively. Both strains were treated with 1 nM CUV9900, NDP and MSH, respectively for 4 days prior and 1 day following irradiation. Floating as well as attached cells were harvested and stained for Annexin V, and analyzed by flow cytometry.

Melanocytes = assay: DNA damage as measured by cyclobutane pyrimidine dimers (CPD), flow cytometry; type: cell-based, human; settings: 48 h after 105 mJ/cm^2 UV
Procedure: Cyclobutane pyrimidine dimers (CPD), the major determinant of UV-induced DNA photoproducts, were detected using flow cytometry analysis.
Melanocytes were pretreated with 0 (control), 10 nM α-MSH or 1 nM NDP-MSH or 1 nM CUV9900 for 4 days prior to, and 2 days after exposure to 105 mJ/cm^2 UV, harvested 48 hours post irradiation, fixated with 70% ethanol, the DNA denatured with 1N HCl/0.2 mg/ml pepsin, then renaturated with sodium tetraborate. Melanocytes were blocked and incubated overnight at 4° C. with the anti-CPD antibody (diluted 1:500; TDM-2 clone), then with goat anti-mouse IgG Alexa Fluor 488 (Invitrogen, Carlsbad Calif.) for 1 hour, and finally resuspended in PBS containing RNase A and propidium iodide. Melanocytes were analyzed on a Coulter EPICS XL flow cytometer (Beckman Coulter) using a 488 nm argon ion laser A 525 band pass filter was used for the Alexa fluor 488 and a 620 band pass filter for the propidium iodide.

melanocytes strain 1505b = assay: cAMP levels, radioimmunoassay, strain 1505b; type: cell-based, human; settings: 1 nM, 45 min, 0.1 mM IBMX
Procedure: as §1

For “Ac-Nle-Glu His-D-Phe-Arg-Trp-NH2 (Ac-[Nle]EH[dF]RW-NH2; SMILES CCCC[C@H](NC(C)=O)C(=O)N[C@@H](CCC(=O)O)C(=O)N[C@@H](Cc1c[nH]cn1)C(=O)N[C@H](Cc1ccccc1)C(=O)N[C@@H](CCCNC(=N)N)C(=O)N[C@@H](Cc1c[nH]c2ccccc12)C(N)=O) [CUV9900, hexapeptide alpha-MSH analogue]”, the “less 8-oxo-dG cellular DNA damage in comparison with alpha-MSH” value (human melanocytes) was 33%, the “more stable than MSH (cell proliferation)” value (melanocyte strain 1513c; strain 1513c) was 3.4% and the “more stable than NDP-MSH (cell proliferation)” value (melanocyte strain 1513c; strain 1513c) was 0.65%. The “Cell proliferation (cell number), Mean” value (melanocyte strain 1513c; strain 1513c [2], mean) was 119.9% of control, the “cAMP, potency comparison” value (melanocytes strain 1513c; 0.1 nM) was “more potent than NDP-MSH” and the “maximal level of cAMP, comparison” value (melanocytes strain 1513c; 10 nM) was “higher maximal level of cAMP than MSH”. The “anti-apoptotic effect (Annexin V), comparison” value (melanocyte strain 103c) was “equal anti-apoptotic effect than NDP-MSH”, the “CPD cellular DNA damage, comparison in words” value (Melanocytes) was “less CPD cellular DNA damage in comparison with and NDP-MSH and slightly higher values than alpha-MSH” and the “cAMP, potency comparison” value (melanocytes strain 1505b) was “more potent than MSH”.

From patent US20130331331A1, “HEXAPEPTIDE WITH IMPROVED ACTIVITY IN THE REPAIR OF CELLULAR DNA OF DERMAL CELLS” (priority 2011, published 2013)
